In assay [1] the target is T1, Recombinant STAT6 protein (STAT6 (W123-T658)) (Homo sapiens, UniProt P42226).
T1 construct: Recombinant STAT6 protein (STAT6 (W123-T658))
T1 sequence (P42226 123-658): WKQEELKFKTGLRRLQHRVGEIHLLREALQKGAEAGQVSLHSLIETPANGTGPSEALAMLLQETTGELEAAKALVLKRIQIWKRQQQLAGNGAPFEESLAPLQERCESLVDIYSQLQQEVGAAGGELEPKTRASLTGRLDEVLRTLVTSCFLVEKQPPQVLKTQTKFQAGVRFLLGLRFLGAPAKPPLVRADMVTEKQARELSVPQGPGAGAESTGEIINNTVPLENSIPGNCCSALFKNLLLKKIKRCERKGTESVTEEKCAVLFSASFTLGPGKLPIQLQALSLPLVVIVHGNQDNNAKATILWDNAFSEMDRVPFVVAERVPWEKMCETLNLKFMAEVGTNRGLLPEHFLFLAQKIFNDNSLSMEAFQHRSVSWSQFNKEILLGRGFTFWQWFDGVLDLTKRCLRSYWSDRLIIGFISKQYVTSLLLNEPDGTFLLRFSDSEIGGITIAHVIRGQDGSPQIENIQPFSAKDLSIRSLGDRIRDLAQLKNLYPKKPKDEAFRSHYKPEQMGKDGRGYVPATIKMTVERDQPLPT
Briefly: STAT6 Fluorescence Polarization (FP) Assay. In kind it is binding. To be noted: STAT6 (W123-T658) 250 nM, probe 5-FAM-Ap[…]-NH2 2 nM, 45-minute incubation; read-out: STAT6 (FP assay IC50 class). The procedure, abridged:
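Competitive FP binding: recombinant STAT6 (W123-T658) at 250 nM, labeled phosphotyrosine peptide at 2 nM, compounds at 1% DMSO, 45 min at RT before reading. IC50 values were obtained from nonlinear regression of mP versus log concentration.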

Assay [2] concerns the target T2, Recombinant STAT3 protein (STAT3 (G127-I722)) (Homo sapiens, UniProt P40763).
T2 construct: Recombinant STAT3 protein (STAT3 (G127-I722))
Description: STAT3 Fluorescence Polarization (FP) Assay. In kind it is binding. The conditions noted are these: STAT3 (G127-I722) 25 nM, probe 5-FAM-GpYLPQTV-NH2 2 nM, 45-minute incubation; read-out: STAT3 (FP assay IC50 class). The procedure, abridged: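 Displacement of a 2 nM 5-FAM-labelled pY peptide (GpYLPQTV) from 25 nM recombinant STAT3 (G127-I722) was monitored by fluorescence polarization. Incubation lasted 45 min at room temperature in pH 7.4 HEPES buffer containing 1% DMSO.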
Background: Polarisation of emitted light reports the rotation of a fluorescent probe.

T2 sequence (P40763 127-722): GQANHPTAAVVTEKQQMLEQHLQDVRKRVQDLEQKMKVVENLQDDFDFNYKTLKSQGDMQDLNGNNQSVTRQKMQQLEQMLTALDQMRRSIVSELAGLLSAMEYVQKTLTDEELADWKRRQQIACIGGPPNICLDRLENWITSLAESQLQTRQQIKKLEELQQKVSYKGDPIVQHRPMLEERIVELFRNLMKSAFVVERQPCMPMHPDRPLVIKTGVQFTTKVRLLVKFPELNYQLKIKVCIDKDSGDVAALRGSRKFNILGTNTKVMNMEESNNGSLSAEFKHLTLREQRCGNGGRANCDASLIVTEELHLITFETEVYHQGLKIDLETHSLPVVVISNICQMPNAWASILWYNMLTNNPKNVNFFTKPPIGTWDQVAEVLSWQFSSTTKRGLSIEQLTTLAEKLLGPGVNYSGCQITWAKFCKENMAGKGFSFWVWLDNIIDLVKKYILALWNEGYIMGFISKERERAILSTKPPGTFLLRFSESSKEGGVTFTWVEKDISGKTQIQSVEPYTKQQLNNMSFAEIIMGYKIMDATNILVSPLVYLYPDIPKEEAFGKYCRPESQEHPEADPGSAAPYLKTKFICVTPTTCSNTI

By IC50 is commonly meant the concentration at which inhibition is half-maximal. Regarding `CNc1ccncc1C1CN(C(=O)[C@@H]2CC[C@@H]3CCC[C@H](NC(=O)c4cc5cc(CP(=O)(O)O)ccc5s4)C(=O)N32)C1` [Compound 606, ((2-(((3S,6S,9aS)-3-(3-(4-(methylamino)pyridin-3-yl)azetidine-1-carbonyl)-5-oxooctahydro-1H-pyrrolo[1,2-a]azepin-6-yl)carbamoyl)benzo [b]thiophen-5-yl)methyl) phosphonic acid], the IC50 in assay [1] is 3 to 30 µM; in assay [2] it was below 100 nM.

Consider `Cn1ncc(C2CN(C(=O)[C@@H]3CC[C@@H]4CCC[C@H](NC(=O)c5cc6cc(C(F)P(=O)(O)O)ccc6s5)C(=O)N43)C2)c1O` (stereo partly drawn) [Compound 607, (fluoro(2-(((3S,6S,9aS)-3-(3-(5-hydroxy-1-methyl-1H-pyrazol-4-yl)azetidine-1-carbonyl)-5-oxooctahydro-1H-pyrrolo[1,2-a]azepin-6-yl)carbamoyl)benzo [b]thiophen-5-yl)methyl) phosphonic acid], for which the IC50 in assay [1] is 0.3 to 3 µM; in assay [2], below 100 nM.

`O=C(N[C@H]1CCC[C@H]2CC[C@@H](C(=O)N3CC(c4ccccc4O)C3)N2C1=O)c1cc2cc(C(F)P(=O)(O)O)ccc2s1` (stereo partly drawn) [Compound 608, (fluoro(2-(((3S,6S,9aS)-3-(3-(2-hydroxyphenyl)azetidine-1-carbonyl)-5-oxooctahydro-1H-pyrrolo[1,2-a]azepin-6-yl)carbamoyl)benzo [b]thiophen-5-yl)methyl) phosphonic acid]: the IC50 in assay [1] is 0.3 to 3 µM; in assay [2], below 100 nM.

For the molecule `O=C(N[C@H]1CCC[C@H]2CC[C@@H](C(=O)N3CC(n4cnccc4=O)C3)N2C1=O)c1cc2cc(C(F)P(=O)(O)O)ccc2s1` (stereo partly drawn) [Compound 609, (fluoro(2-(((3S,6S,9aS)-5-oxo-3-(3-(6-oxopyrimidin-1(6H)-yl)azetidine-1-carbonyl)octahydro-1H-pyrrolo[1,2-a]azepin-6-yl)carbamoyl)benzo [b]thiophen-5-yl)methyl) phosphonic acid], the values for the half-maximal inhibitory concentration (IC50) in assay [1] and in assay [2] were 3 to 30 µM and 100 to 1000 nM, respectively.

For `O=C(N[C@H]1CCC[C@H]2CC[C@@H](C(=O)N3CC(c4ccncc4F)C3)N2C1=O)c1cc2cc(C(F)P(=O)(O)O)ccc2s1` (stereo partly drawn) [Compound 610, (fluoro(2-(((3S,6S,9aS)-3-(3-(3-fluoropyridin-4-yl)azetidine-1-carbonyl)-5-oxooctahydro-1H-pyrrolo[1,2-a]azepin-6-yl)carbamoyl)benzo [b]thiophen-5-yl)methyl) phosphonic acid], the half-inhibitory concentration (IC50) in assay [1] was in the range of 3 to 30 µM; in assay [2], 100 to 1000 nM.

In the case of `O=C(N[C@H]1CCC[C@H]2CC[C@@H](C(=O)N3CC(c4ccncc4)C3)N2C1=O)c1cc2cc(C(F)P(=O)(O)O)ccc2s1` (stereo partly drawn) [Compound 611, (fluoro(2-(((3S,6S,9aS)-5-oxo-3-(3-(pyridin-4-yl)azetidine-1-carbonyl)octahydro-1H-pyrrolo[1,2-a]azepin-6-yl)carbamoyl)benzo [b]thiophen-5-yl)methyl) phosphonic acid], the figures for the half-maximal inhibitory concentration (IC50) in assay [1] and in assay [2] were 3 to 30 µM and 100 to 1000 nM, respectively.

Take `CC(C)Oc1ccncc1C1CN(C(=O)[C@@H]2CC[C@@H]3CCC[C@H](NC(=O)c4cc5cc(C(F)P(=O)(O)O)ccc5s4)C(=O)N32)C1` (stereo partly drawn) [Compound 612, (fluoro(2-(((3S,6S,9aS)-3-(3-(4-isopropoxypyridin-3-yl)azetidine-1-carbonyl)-5-oxooctahydro-1H-pyrrolo[1,2-a]azepin-6-yl)carbamoyl)benzo [b]thiophen-5-yl)methyl) phosphonic acid]: the IC50 was 3 to 30 µM in assay [1] and below 100 nM in assay [2].

With `O=C(N[C@H]1CCC[C@H]2CC[C@@H](C(=O)N3CC(n4cccn4)C3)N2C1=O)c1cc2cc(C(F)P(=O)(O)O)ccc2s1` (stereo partly drawn) [Compound 613, ((2-(((3S,6S,9aS)-3-(3-(1H-pyrazol-1-yl)azetidine-1-carbonyl)-5-oxooctahydro-1H-pyrrolo[1,2-a]azepin-6-yl)carbamoyl)benzo [b]thiophen-5-yl)fluoromethyl) phosphonic acid], the concentration for half-maximal inhibition (IC50) in assay [1] was 3 to 30 µM; in assay [2], 100 to 1000 nM.

Turning to `O=C(N[C@H]1CCC[C@H]2CC[C@@H](C(=O)N3CC(n4cc(F)cn4)C3)N2C1=O)c1cc2cc(C(F)P(=O)(O)O)ccc2s1` (stereo partly drawn) [Compound 614, (fluoro(2-(((3S,6S,9aS)-3-(3-(4-fluoro-1H-pyrazol-1-yl)azetidine-1-carbonyl)-5-oxooctahydro-1H-pyrrolo[1,2-a]azepin-6-yl)carbamoyl)benzo [b]thiophen-5-yl)methyl) phosphonic acid], the values for the half-inhibitory concentration (IC50) in assay [1] and in assay [2] were 3 to 30 µM and 100 to 1000 nM, respectively.

As to `COCCOC1(c2ccccn2)CN(C(=O)[C@@H]2CC[C@@H]3CCCC[C@H](NC(=O)c4cc5cc(C(F)P(=O)(O)O)ccc5s4)C(=O)N32)C1` (stereo partly drawn) [Compound 615, (fluoro(2-(((3S,6S,10aS)-3-(3-(2-methoxyethoxy)-3-(pyridin-2-yl)azetidine-1-carbonyl)-5-oxodecahydropyrrolo[1,2-a]azocin-6-yl)carbamoyl)benzo [b]thiophen-5-yl)methyl) phosphonic acid], the IC50 is 3 to 30 µM in assay [1] and below 100 nM in assay [2].

In the case of `O=C(N[C@H]1CCCC[C@H]2CC[C@@H](C(=O)N3CC(OCC(F)F)(c4cccnc4)C3)N2C1=O)c1cc2cc(C(F)P(=O)(O)O)ccc2s1` (stereo partly drawn) [Compound 616, ((2-(((3S,6S,10aS)-3-(3-(2,2-difluoroethoxy)-3-(pyridin-3-yl)azetidine-1-carbonyl)-5-oxodecahydropyrrolo [1,2-a]azocin-6-yl)carbamoyl)benzo [b]thiophen-5-yl)fluoromethyl) phosphonic acid], the IC50 in assay [1] is 3 to 30 µM; in assay [2], below 100 nM.

As to `Cn1ccc(=O)c(C2CN(C(=O)[C@@H]3CC[C@@H]4CCC[C@H](NC(=O)c5cc6cc(C(F)P(=O)(O)O)ccc6s5)C(=O)N43)C2)c1` (stereo partly drawn) [Compound 617, (fluoro(2-(((3S,6S,9aS)-3-(3-(1-methyl-4-oxo-1,4-dihydropyridin-3-yl)azetidine-1-carbonyl)-5-oxooctahydro-1H-pyrrolo[1,2-a]azepin-6-yl)carbamoyl)benzo [b]thiophen-5-yl)methyl) phosphonic acid], the 50% inhibitory concentration (IC50) in assay [1] is 3 to 30 µM; in assay [2], 100 to 1000 nM.

For `CCc1ccncc1C1CN(C(=O)[C@@H]2CC[C@@H]3CCC[C@H](NC(=O)c4cc5cc(CP(=O)(O)O)ccn5n4)C(=O)N32)C1` [Compound 618, ((2-(((3S,6S,9aS)-3-(3-(4-ethylpyridin-3-yl)azetidine-1-carbonyl)-5-oxooctahydro-1H-pyrrolo[1,2-a]azepin-6-yl)carbamoyl)pyrazolo[1,5-a]pyridin-5-yl)methyl) phosphonic acid], the results for the IC50 in assay [1] and in assay [2] were 3 to 30 µM and 1000 to 10000 nM, respectively.

As to `O=C(N[C@H]1CCC[C@H]2CC[C@@H](C(=O)N3CC(c4ccnc(O)c4)C3)N2C1=O)c1cc2cc(C(F)P(=O)(O)O)ccc2s1` (stereo partly drawn) [Compound 619, (fluoro(2-(((3S,6S,9aS)-3-(3-(2-hydroxypyridin-4-yl)azetidine-1-carbonyl)-5-oxooctahydro-1H-pyrrolo[1,2-a]azepin-6-yl)carbamoyl)benzo [b]thiophen-5-yl)methyl) phosphonic acid], the IC50 in assay [1] is 3 to 30 µM; in assay [2], 100 to 1000 nM.

Take `O=C(N[C@H]1CCC[C@H]2CC[C@@H](C(=O)N3CC(n4ccc(=O)nc4)C3)N2C1=O)c1cc2cc(C(F)P(=O)(O)O)ccc2s1` (stereo partly drawn) [Compound 620, (fluoro(2-(((3S,6S,9aS)-5-oxo-3-(3-(4-oxopyrimidin-1(4H)-yl)azetidine-1-carbonyl)octahydro-1H-pyrrolo[1,2-a]azepin-6-yl)carbamoyl)benzo [b]thiophen-5-yl)methyl) phosphonic acid]: the values for the IC50 in assay [1] and in assay [2] were 0.3 to 3 µM and 100 to 1000 nM, respectively.

In the case of `O=C(N[C@H]1CCCC[C@H]2CC[C@@H](C(=O)N3CC(OCC(F)F)(c4ccccn4)C3)N2C1=O)c1cc2cc(C(F)P(=O)(O)O)ccc2s1` (stereo partly drawn) [Compound 621, ((2-(((3S,6S,10aS)-3-(3-(2,2-difluoroethoxy)-3-(pyridin-2-yl)azetidine-1-carbonyl)-5-oxodecahydropyrrolo [1,2-a]azocin-6-yl)carbamoyl)benzo [b]thiophen-5-yl)fluoromethyl) phosphonic acid], the concentration for half-maximal inhibition (IC50) was 3 to 30 µM in assay [1] and below 100 nM in assay [2].

For the origin of these results see US20250215029A1 (Recludix Pharma, Inc., priority 2022, published 2025).
